Legend:
mGlu3 = mGlu3 (Rattus norvegicus (Rat), UniProt P31422); test: mGlu3 GIRK thallium flux assay; conditions: for Emax: read-out: mGlu3 PAM Max; for mGlu3 PAM Max / EC50: PAM mode, mean ± SEM; for mGlu3 PAM Max: % Glutamate Max; for EC50: read-out: mGlu3 PAM EC50, test compound, then EC20 glutamate […] later in the presence of thallium;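 on all read-outs here: kinetic fluorescence slope read shortly after thallium plus agonist addition, scaled between vehicle and maximal agonist control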
mGlu2 = mGlu2 (Rattus norvegicus (Rat), UniProt P31421); test: mGlu2 GIRK thallium flux assay; conditions: for Emax: read-out: mGlu2 PAM Max; for mGlu2 PAM Max / EC50: PAM mode, mean ± SEM, at least three experiments; for mGlu2 PAM Max: % Glutamate Max; for EC50: read-out: mGlu2 PAM EC50, test compound, then EC20 glutamate […] later in the presence of thallium;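 on all read-outs here: Cell-based assay, rate of fluorescence rise right after thallium plus agonist addition read on a kinetic imaging plate reader, normalized to vehicle and maximal agonist control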
Sequence of mGlu2 (P31421 19-872): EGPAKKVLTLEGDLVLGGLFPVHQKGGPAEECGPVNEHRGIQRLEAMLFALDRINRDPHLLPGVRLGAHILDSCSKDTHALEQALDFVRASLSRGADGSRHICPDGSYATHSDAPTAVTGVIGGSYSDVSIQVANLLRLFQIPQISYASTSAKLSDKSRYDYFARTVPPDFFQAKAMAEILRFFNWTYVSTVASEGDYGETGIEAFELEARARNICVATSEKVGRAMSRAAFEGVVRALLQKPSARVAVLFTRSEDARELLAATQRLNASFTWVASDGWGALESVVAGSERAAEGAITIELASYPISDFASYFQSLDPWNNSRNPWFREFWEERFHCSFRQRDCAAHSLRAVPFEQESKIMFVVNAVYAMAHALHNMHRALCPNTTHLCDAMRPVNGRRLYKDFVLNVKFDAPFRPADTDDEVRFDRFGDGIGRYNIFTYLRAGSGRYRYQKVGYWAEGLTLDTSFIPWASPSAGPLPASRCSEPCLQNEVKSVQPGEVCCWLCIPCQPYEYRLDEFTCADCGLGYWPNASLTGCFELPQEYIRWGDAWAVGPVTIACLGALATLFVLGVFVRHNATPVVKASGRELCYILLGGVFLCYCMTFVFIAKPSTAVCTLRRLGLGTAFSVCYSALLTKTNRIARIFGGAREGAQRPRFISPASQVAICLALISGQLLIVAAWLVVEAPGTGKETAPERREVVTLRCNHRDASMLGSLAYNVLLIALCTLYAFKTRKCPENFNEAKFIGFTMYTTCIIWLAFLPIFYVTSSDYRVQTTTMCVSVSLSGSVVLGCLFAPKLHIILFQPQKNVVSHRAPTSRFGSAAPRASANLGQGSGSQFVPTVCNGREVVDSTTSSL

Sequence of mGlu3 (P31422 23-879): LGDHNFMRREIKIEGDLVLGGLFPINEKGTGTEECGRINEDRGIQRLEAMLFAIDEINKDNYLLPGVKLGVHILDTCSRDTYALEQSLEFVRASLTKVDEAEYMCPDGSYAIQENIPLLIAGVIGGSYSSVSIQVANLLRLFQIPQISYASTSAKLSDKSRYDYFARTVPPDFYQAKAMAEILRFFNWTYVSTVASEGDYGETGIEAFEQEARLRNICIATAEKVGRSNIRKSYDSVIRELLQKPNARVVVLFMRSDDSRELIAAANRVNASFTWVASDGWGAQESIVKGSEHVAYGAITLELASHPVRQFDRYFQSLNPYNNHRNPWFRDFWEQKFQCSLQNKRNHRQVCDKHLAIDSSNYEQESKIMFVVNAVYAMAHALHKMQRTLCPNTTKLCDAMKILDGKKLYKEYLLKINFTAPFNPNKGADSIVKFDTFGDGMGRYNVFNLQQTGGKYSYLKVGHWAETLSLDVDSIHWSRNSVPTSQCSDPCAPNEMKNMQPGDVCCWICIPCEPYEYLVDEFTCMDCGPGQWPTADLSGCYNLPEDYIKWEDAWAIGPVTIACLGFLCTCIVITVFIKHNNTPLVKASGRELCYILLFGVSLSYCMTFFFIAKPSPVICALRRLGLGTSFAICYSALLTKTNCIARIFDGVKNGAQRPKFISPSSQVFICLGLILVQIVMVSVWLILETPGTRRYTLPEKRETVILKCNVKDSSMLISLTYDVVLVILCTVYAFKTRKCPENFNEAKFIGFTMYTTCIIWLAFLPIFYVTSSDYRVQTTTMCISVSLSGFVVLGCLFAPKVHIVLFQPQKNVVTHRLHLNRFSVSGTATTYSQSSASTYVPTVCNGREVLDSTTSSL

SMILES	Emax (mGlu3)	Emax (mGlu2)	mGlu3 PAM Max (mGlu3)	EC50 (mGlu3)	mGlu2 PAM Max (mGlu2)	EC50 (mGlu2)
COc1ccc(C(=O)Nc2ccccn2)cc1OCCCCOc1ccc(C(=O)CC(C)(C)C)c(O)c1C [compound 106, 3-(4-(4-(3,3-Dimethylbutanoyl)-3-hydroxy-2-methylphenoxy)butoxy)-4-methoxy-N-(pyridin-2-yl)benzamide]	97.4 ± 9.4%	74.8 ± 5.9%	–	–	–	–
COc1ccc(C(=O)N2CCN(S(C)(=O)=O)CC2)cc1OCCCCOc1ccc(C(=O)CC(C)(C)C)c(O)c1C [compound 107, 1-{2-Hydroxy-4-[4-(2-methoxy-5-{[4-(methylsulfonyl)piperazinyl]carbonyl}phenoxy)butoxy]-3-methylphenyl}-3,3-dimethylbutan-1-one]	–	–	22.9 ± 1.5%	> 30000 nM	22.1 ± 1.1%	> 30000 nM
COc1ccc(C(=O)NC(C)(C)C)cc1OCCCCOc1ccc(C(=O)CC(C)(C)C)c(O)c1C [compound 108, N-(tert-Butyl)-3-(4-(4-(3,3-dimethylbutanoyl)-3-hydroxy-2-methylphenoxy)butoxy)-4-methoxybenzamide]	33.4 ± 5.3%	38.6 ± 1.1%	–	> 30000 nM	–	> 10000 nM
COc1ccc(C(=O)NC2CC2)cc1OCCCCOc1ccc(C(=O)CC(C)(C)C)c(O)c1C [compound 109, N-Cyclopropyl-3-(4-(4-(3,3-dimethylbutanoyl)-3-hydroxy-2-methylphenoxy)butoxy)-4-methoxybenzamide]	106 ± 5.1%	101.5 ± 0.9%	–	578 ± 12 nM	–	765 ± 5 nM
COc1ccc(C(=O)NCC(C)C)cc1OCCCCOc1ccc(C(=O)CC(C)(C)C)c(O)c1C [compound 110, 3-(4-(4-(3,3-Dimethylbutanoyl)-3-hydroxy-2-methylphenoxy)butoxy)-N-isobutyl-4-methoxybenzamide]	31.7 ± 8.5%	48.4 ± 5.5%	–	> 30000 nM	–	6400 ± 389 nM
Cc1c(OCCCCOc2ccc(CCC(=O)O)c(O)c2)ccc(C(=O)CC(C)C)c1C [compound 111]	–	–	–	> 30000 nM	–	> 10000 nM
COc1ccc(C(=O)NC2CCCC2)cc1OCCCCOc1ccc(C(=O)CC(C)(C)C)c(O)c1C [compound 112, N-Cyclopentyl-3-(4-(4-(3,3-dimethylbutanoyl)-3-hydroxy-2-methylphenoxy)butoxy)-4-methoxybenzamide]	40.3 ± 1.6%	35 ± 5.8%	–	> 30000 nM	–	> 10000 nM
COc1ccc(C(=O)NS(=O)(=O)c2ccccc2)cc1OCCCCOc1ccc(C(=O)CC(C)(C)C)c(O)c1C [compound 113, 3-(4-(4-(3,3-Dimethylbutanoyl)-3-hydroxy-2-methylphenoxy)butoxy)-4-methoxy-N-(phenylsulfonyl)benzamide]	109 ± 3.5%	102 ± 2.9%	–	1080 ± 21 nM	–	872 ± 4 nM
Cc1c(OCc2cccc(COc3ccc(C#N)cc3)c2)ccc(C(=O)CC(C)C)c1C [compound 115]	–	–	–	> 30000 nM	–	> 30000 nM
COC(=O)c1ccc(OCc2cccc(COc3ccc(C(=O)CC(C)C)c(C)c3C)c2)cc1 [compound 116]	–	–	–	> 30000 nM	–	> 30000 nM
Cc1c(OCc2cccc(COc3ccc(C#N)cc3)c2)ccc(C(=O)CC(C)C)c1O [compound 118]	–	–	–	> 30000 nM	–	> 30000 nM
COC(=O)c1ccc(OCc2cccc(COc3ccc(C(=O)CC(C)C)c(O)c3C)c2)cc1 [compound 119]	–	–	–	> 30000 nM	–	> 30000 nM
Cc1c(OCc2cccc(COc3ccc(C(=O)O)cc3)c2)ccc(C(=O)CC(C)C)c1C [compound 123]	–	–	–	> 30000 nM	–	> 30000 nM
Cc1c(OCc2cccc(COc3ccc(C(=O)O)cc3)c2)ccc(C(=O)CC2CCCC2)c1C [compound 124]	–	–	–	> 30000 nM	–	> 30000 nM
Cc1c(OCc2cccc(COc3ccc(C(=O)O)cc3)c2)ccc(C(=O)CC(C)C)c1O [compound 125]	–	–	13.9 ± 3.1%	> 30000 nM	82.7 ± 7.2%	238 ± 51 nM
Cc1c(OCc2cccc(COc3ccc(C(=O)O)cc3)c2)ccc(C(=O)CC2CCCC2)c1O [compound 126]	–	–	–	> 30000 nM	–	> 10000 nM

SMILES	Emax (mGlu3)	Emax (mGlu2)	mGlu3 PAM Max (mGlu3)	EC50 (mGlu3)	mGlu2 PAM Max (mGlu2)	EC50 (mGlu2)
Cc1c(OCc2cccc(-c3cccc(C(=O)O)c3)c2)ccc(C(=O)CC(C)(C)C)c1O [compound 127, 3′-((4-(3,3-Dimethylbutanoyl)-3-hydroxy-2-methylphenoxy)methyl)-[1,1′-biphenyl]-3-carboxylic acid]	104 ± 2.4%	91.1 ± 2.6%	–	343 ± 40 nM	–	219 ± 43 nM
CC(=O)c1ccc(OCc2cccc(-c3cccc(C(=O)O)c3)c2)c(C)c1O [compound 128, 3′-((4-Acetyl-3-hydroxy-2-methylphenoxy)methyl)-[1,1′-biphenyl]-3-carboxylic acid]	67.8 ± 8.7%	57.9 ± 6.6%	–	1290 ± 781 nM	–	35 ± 13 nM
Cc1c(OCc2cccc(-c3cccc(C(=O)O)c3)c2)ccc(C(=O)CC2CCCC2)c1O [compound 129, 3′-((4-(2-Cyclopentylacetyl)-3-hydroxy-2-methylphenoxy)methyl)-[1,1′-biphenyl]-3-carboxylic acid]	94 ± 10.1%	97.5 ± 9%	–	3560 ± 1940 nM	–	616 ± 217 nM
CCCC(=O)c1ccc(OCc2cccc(-c3cccc(C(=O)O)c3)c2)c(C)c1O [compound 130, 3′-((4-Butyryl-3-hydroxy-2-methylphenoxy)methyl)-[1,1′-biphenyl]-3-carboxylic acid]	81 ± 14.8%	92.9 ± 10.7%	–	1680 ± 753 nM	–	142 ± 29 nM
Cc1c(OCc2cccc(-c3cccc(C(=O)O)c3)c2)ccc(C(=O)C(C)C)c1O [compound 131, 3′-((3-Hydroxy-4-isobutyryl-2-methylphenoxy)methyl)-[1,1′-biphenyl]-3-carboxylic acid]	55 ± 24.4%	83.2 ± 12.3%	–	1750 ± 891 nM	–	222 ± 82 nM
Cc1c(OCc2cccc(-c3ccc(C(=O)O)cc3)c2)ccc(C(=O)CC(C)(C)C)c1O [compound 132, 3′-((4-(3,3-Dimethylbutanoyl)-3-hydroxy-2-methylphenoxy)methyl)-[1,1′-biphenyl]-4-carboxylic acid]	57.5 ± 20.9%	90.5 ± 13.8%	–	1640 ± 487 nM	–	561 ± 63 nM
Cc1c(OCc2cccc(-c3ccc(Cl)c(C(=O)O)c3)c2)ccc(C(=O)CC(C)(C)C)c1O [compound 133, 4-Chloro-3′-((4-(3,3-dimethylbutanoyl)-3-hydroxy-2-methylphenoxy)methyl)-[1,1′-biphenyl]-3-carboxylic acid]	70.9 ± 3.6%	90.2 ± 4.1%	–	1710 ± 888 nM	–	433 ± 99 nM
COc1ccc(C(=O)O)cc1-c1cccc(COc2ccc(C(=O)CC(C)(C)C)c(O)c2C)c1 [compound 134, 3′-((4-(3,3-Dimethylbutanoyl)-3-hydroxy-2-methylphenoxy)methyl)-6-methoxy-[1,1′-biphenyl]-3-carboxylic acid]	76.4 ± 5.4%	89.6 ± 2.9%	–	324 ± 94 nM	–	118 ± 2 nM
Cc1c(OCc2cccc(-c3ccc(F)c(C(=O)O)c3)c2)ccc(C(=O)CC(C)(C)C)c1O [compound 135, 3′-((4-(3,3-Dimethylbutanoyl)-3-hydroxy-2-methylphenoxy)methyl)-4-fluoro-[1,1′-biphenyl]-3-carboxylic acid]	74.4 ± 5%	88.5 ± 3.8%	–	587 ± 129 nM	–	208 ± 20 nM
Cc1c(OCc2cccc(-c3cc(F)cc(C(=O)O)c3)c2)ccc(C(=O)CC(C)(C)C)c1O [compound 136, 3′-((4-(3,3-Dimethylbutanoyl)-3-hydroxy-2-methylphenoxy)methyl)-5-fluoro-[1,1′-biphenyl]-3-carboxylic acid]	77.4 ± 7.1%	93.3 ± 2.1%	–	496 ± 86 nM	–	308 ± 40 nM
Cc1c(OCc2cccc(-c3cccc(C(=O)O)c3)c2)ccc(C(=O)CC(C)C)c1O [compound 137, 3′-((3-Hydroxy-2-methyl-4-(3-methylbutanoyl)phenoxy)methyl)-[1,1′-biphenyl]-3-carboxylic acid]	76.8 ± 8%	85.8 ± 3.7%	–	642 ± 151 nM	–	181 ± 28 nM
Cc1c(OCc2cccc(-c3ccccc3C(=O)O)c2)ccc(C(=O)CC(C)(C)C)c1O [compound 138, 3′-((4-(3,3-Dimethylbutanoyl)-3-hydroxy-2-methylphenoxy)methyl)-[1,1′-biphenyl]-2-carboxylic acid]	23.5 ± 4.6%	42.1 ± 7.1%	–	> 10000 nM	–	643 ± 137 nM
Cc1c(OCc2cccc(-c3cc(C(=O)O)ccc3F)c2)ccc(C(=O)CC(C)(C)C)c1O [compound 139, 3′-((4-(3,3-Dimethylbutanoyl)-3-hydroxy-2-methylphenoxy)methyl)-6-fluoro-[1,1′-biphenyl]-3-carboxylic acid]	85.6 ± 5.5%	88.2 ± 5.1%	–	1100 ± 330 nM	–	436 ± 84 nM
COc1ccc(-c2cccc(COc3ccc(C(=O)CC(C)(C)C)c(O)c3C)c2)cc1C(=O)O [compound 140, 3′-((4-(3,3-Dimethylbutanoyl)-3-hydroxy-2-methylphenoxy)methyl)-4-methoxy-[1,1′-biphenyl]-3-carboxylic acid]	67.2 ± 13.3%	86.1 ± 6.1%	–	8410 ± 4840 nM	–	489 ± 73 nM
Cc1c(OCc2cccc(-c3ccc(C(=O)O)c(Cl)c3)c2)ccc(C(=O)CC(C)(C)C)c1O [compound 141, 3-Chloro-3′-((4-(3,3-dimethylbutanoyl)-3-hydroxy-2-methylphenoxy)methyl)-[1,1′-biphenyl]-4-carboxylic acid]	54.9 ± 9.7%	67 ± 6.4%	–	656 ± 265 nM	–	391 ± 103 nM
Cc1c(OCc2ccc(-c3cccc(C(=O)O)c3)cc2)ccc(C(=O)CC(C)(C)C)c1O [compound 142, 4′-((4-(3,3-Dimethylbutanoyl)-3-hydroxy-2-methylphenoxy)methyl)-[1,1′-biphenyl]-3-carboxylic acid]	88.7 ± 9.5%	97.1 ± 8.2%	–	2200 ± 753 nM	–	3180 ± 626 nM

Reference: US10099993B2, “Metabotropic glutamate receptor positive allosteric modulators (PAMS) and uses thereof” (Sanford-Burnham Medical Research Institute, priority 2014, dated 2018)
